From patent US7037905B2, “Pharmaceutical use of boronic acids and esters thereof” (Novo Nordisk A/S, priority 2002, dated 2006) come the findings set out here.

The target of one experiment is T1, hormone sensitive lipase (Homo sapiens, UniProt Q05469).
T1 sequence (Q05469 1-1076): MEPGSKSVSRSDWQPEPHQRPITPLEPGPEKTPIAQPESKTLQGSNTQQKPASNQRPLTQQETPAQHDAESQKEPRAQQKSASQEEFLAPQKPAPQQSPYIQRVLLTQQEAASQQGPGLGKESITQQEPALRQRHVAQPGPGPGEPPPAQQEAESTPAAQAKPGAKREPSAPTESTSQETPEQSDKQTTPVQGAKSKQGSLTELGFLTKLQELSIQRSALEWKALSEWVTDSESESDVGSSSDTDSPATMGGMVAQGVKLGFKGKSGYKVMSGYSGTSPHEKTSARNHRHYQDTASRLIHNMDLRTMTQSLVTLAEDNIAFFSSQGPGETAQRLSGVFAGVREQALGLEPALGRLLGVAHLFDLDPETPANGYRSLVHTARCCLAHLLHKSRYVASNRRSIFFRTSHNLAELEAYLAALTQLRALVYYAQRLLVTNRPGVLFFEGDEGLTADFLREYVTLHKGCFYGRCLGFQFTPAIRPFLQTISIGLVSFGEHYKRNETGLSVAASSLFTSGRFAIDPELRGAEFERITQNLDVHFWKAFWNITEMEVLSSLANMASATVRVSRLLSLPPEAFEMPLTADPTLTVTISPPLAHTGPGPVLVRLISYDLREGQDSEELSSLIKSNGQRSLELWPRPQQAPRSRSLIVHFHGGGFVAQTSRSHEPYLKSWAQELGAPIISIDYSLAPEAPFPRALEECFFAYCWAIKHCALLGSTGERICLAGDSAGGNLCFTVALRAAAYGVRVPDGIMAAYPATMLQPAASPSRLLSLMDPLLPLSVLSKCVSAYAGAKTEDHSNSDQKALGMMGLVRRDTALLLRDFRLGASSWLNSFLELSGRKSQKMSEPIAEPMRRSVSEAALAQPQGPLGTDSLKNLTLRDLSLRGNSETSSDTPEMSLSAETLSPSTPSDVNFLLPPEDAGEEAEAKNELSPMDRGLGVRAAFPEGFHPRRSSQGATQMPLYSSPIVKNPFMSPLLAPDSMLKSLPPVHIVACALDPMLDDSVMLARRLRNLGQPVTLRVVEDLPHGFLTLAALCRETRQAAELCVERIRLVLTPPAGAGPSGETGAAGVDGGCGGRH
Nature of the experiment: TEST 3190.1 HSL-FL: percent inhibition of hormone sensitive lipase at 10 μM, fluorochrome-labeled triacylglyceride emulsion. Type of experiment: biochemical. Particulars: 10 μM sample concentration; percent activity relative to a non-inhibited sample; 30 min preincubation 25° C., 120 min at 37° C. How it is done: 3190.1: Assay for determination of percent inhibition of hormone sensitive lipase by compound at 10 μM sample concentration.
A lipid emulsion with fluorochrome-labeled triacylglyceride and phospholipid is used as substrate with a standard concentration of highly purified HSL (12 μg/mL initial concentration corresponding to 600 ng/mL final concentration). BSA is added as product receptor. The transfer of the fluorochrome from the lipid phase to the water (BSA) phase changes the fluorescent properties of the fluorochrome. The changes can be monitored on a fluorimeter with an excitation wavelength of 450 nm and an emission wavelength of 545 nm.
Compound and HSL (2 μL compound, 10 μL enzyme and 70 μL PED-BSA buffer) is pre-incubated for 30 min at 25° C. before addition of substrate (100 μL). Amount of formed product is measured after 120 min incubation at 37° C.
Results are given as percent activity relative to a non-inhibited sample (no compound).
As for `CC1(C)OB(c2ccc(Cl)s2)OC1(C)C` [Example 1, 2-(5-Chlorothiophen-2-yl)-4,4,5,5-tetramethyl-[1,3,2]dioxaborolane], the activity at 10 µM stood at 17%.
Molecule `CC1(C)COB(c2ccc(Cl)s2)OC1` [Example 2, 2-(5-Chlorothiophen-2-yl)-5,5-dimethyl-[1,3,2]dioxaborinane] showed an activity at 10 µM of 17%.
Turning to `Clc1ccc(B2OCCNCCO2)s1` [Example 3, 2-(5-Chlorothiophen-2-yl)-[1,3,6,2]dioxazaborocane], the activity at 10 µM was 19%.
Molecule `Fc1cc(F)cc(B2OCCNCCO2)c1` [Example 4, 2-(3,5-Difluorophenyl)-[1,3,6,2]dioxazaborocane] displayed an activity at 10 µM of 32%.
On the same count and under the same terms, the result for `Brc1cccc(B2OCCNCCO2)c1` [Example 5, 2-(3-Bromophenyl)-[1,3,6,2]dioxazaborocane] reads 34%; that for `Clc1cccc(B2OCCNCCO2)c1` [Example 6, 2-(3-Chlorophenyl)-[1,3,6,2]dioxazaborocane], 36%.
As for `Fc1cccc(B2OCCNCCO2)c1` [Example 7, 2-(3-Fluorophenyl)-[1,3,6,2]dioxazaborocane], the activity at 10 µM was 80%.
Turning to `FC(F)(F)c1cccc(B2OCCNCCO2)c1` [Example 8, 2-(3-Trifluoromethylphenyl)-[1,3,6,2]dioxazaborocane], the activity at 10 µM is 29%.
`Fc1cc(B2OCCNCCO2)cc(F)c1F` [Example 9, 2-(3,4,5-Trifluorophenyl)-[1,3,6,2]dioxazaborocane] gave an activity at 10 µM of 32%.
In the case of `CC1(C)COB(c2cccc(Cl)c2)OC1` [Example 10, 2-(3-Chlorophenyl)-5,5-dimethyl-[1,3,2]dioxaborinane], the activity at 10 µM is 39%.
The same measure, in the same setting: the figure for `CC1(C)COB(c2cccc(C(F)(F)F)c2)OC1` [Example 11, 5,5-Dimethyl-2-(3-trifluoromethylphenyl)-[1,3,2]dioxaborinane] is 31%; for `COc1ccc(Cl)cc1B1OCCNCCO1` [Example 12, 2-(5-Chloro-2-methoxyphenyl)-[1,3,6,2]dioxazaborocane] it is 39%.
On the same count and under the same terms, the figure for `FC(F)(F)Oc1cccc(B2OCCNCCO2)c1` [Example 13, 2-(3-Trifluoromethoxyphenyl)-[1,3,6,2]dioxazaborocane] is 26%.
The same measure, in the same setting: the figure for `Clc1cc(Cl)cc(B2OCCNCCO2)c1` [Example 14, 2-(3,5-Dichlorophenyl)-[1,3,6,2]dioxazaborocane] is 40%; for `Fc1ccc(B2OCCNCCO2)cc1Cl` [Example 15, 2-(3-Chloro-4-fluorophenyl)-[1,3,6,2]dioxazaborocane] it is 39%.
`Cc1csc(B2OCCNCCO2)c1` [Example 16, 2-(4-Methylthiophen-2-yl)-[1,3,6,2]dioxazaborocane] returned an activity at 10 µM of 61%.
Same read-out and setting: the result for `CC1(C)COB(c2cccc(Br)c2)OC1` [Example 17, 2-(3-Bromophenyl)-5,5-dimethyl-[1,3,2]dioxaborinane] reads 11%; that for `COc1ccc(Cl)cc1B1OCC(C)(C)CO1` [Example 18, 2-(5-Chloro-2-methoxyphenyl)-5,5-dimethyl-[1,3,2]dioxaborinane], 43%; that for `CC1(C)COB(c2cc(F)c(F)c(F)c2)OC1` [Example 19, 5,5-Dimethyl-2-(3,4,5-trifluorophenyl)-[1,3,2]dioxaborinane], 49%.
`CC1(C)COB(c2cccc(OC(F)(F)F)c2)OC1` [Example 20, 5,5-Dimethyl-2-(3-trifluoromethoxyphenyl)-[1,3,2]dioxaborinane] displayed an activity at 10 µM of 27%.
On the same count and under the same terms, the figure for `CC1(C)COB(c2cc(Cl)cc(Cl)c2)OC1` [Example 21, 2-(3,5-Dichlorophenyl)-5,5-dimethyl-[1,3,2]dioxaborinane] is 42%.
On the same count and under the same terms, the result for `CC1(C)COB(c2ccc(F)c(Cl)c2)OC1` [Example 22, 2-(3-Chloro-4-fluorophenyl)-5,5-dimethyl-[1,3,2]dioxaborinane] reads 31%; that for `CC1(C)COB(c2cccc(F)c2)OC1` [Example 23, 2-(3-Fluorophenyl)-5,5-dimethyl-[1,3,2]dioxaborinane], 46%.
Same read-out and setting: the result for `Cc1csc(B2OCC(C)(C)CO2)c1` [Example 24, 5,5-Dimethyl-2-(4-methylthiophen-2-yl)-[1,3,2]dioxaborinane] reads 58%; that for `CC1(C)OB(c2cccc(Br)c2)OC1(C)C` [Example 25, 2-(3-Bromophenyl)-4,4,5,5-tetramethyl-[1,3,2]dioxaborolane], 28%; that for `CC1(C)OB(c2cccc(OC(F)(F)F)c2)OC1(C)C` [Example 27, 4,4,5,5-Tetramethyl-2-(3-trifluoromethoxyphenyl)-[1,3,2]dioxaborolane], 29%.
Take `CC1(C)OB(c2cc(Cl)cc(Cl)c2)OC1(C)C` [Example 28, 2-(3,5-Dichlorophenyl)-4,4,5,5-tetramethyl-[1,3,2]dioxaborolane]: the activity at 10 µM amounted to 43%.
In the case of `CC1(C)OB(c2ccc(F)c(Cl)c2)OC1(C)C` [Example 29, 2-(3-Chloro-4-fluorophenyl)-4,4,5,5-tetramethyl-[1,3,2]dioxaborolane], the activity at 10 µM came out at 36%.
Same read-out and setting: the figure for `CC1(C)OB(c2cccc(Cl)c2)OC1(C)C` [Example 30, 2-(3-Chlorophenyl)-4,4,5,5-tetramethyl-[1,3,2]dioxaborolane] is 40%; for `CC1(C)OB(c2cccc(C(F)(F)F)c2)OC1(C)C` [Example 31, 4,4,5,5-Tetramethyl-2-(3-trifluoromethylphenyl)-[1,3,2]dioxaborolane] it is 27%.

A further experiment concerns the target T2, HSL (Homo sapiens, UniProt Q05469).
T2 sequence (Q05469 1-1076): T1 sequence (Q05469 1-1076)
The experiment can be described thus: TEST 3180.2 HSL: percent inhibition at 10 μM, 3H-Triolein lipid emulsion. Type of experiment: biochemical. The settings on record: 10 μM concentration; percent activity relative to an un-inhibited sample; 30 min preincubation, 30 min reaction at 25° C.; read-out: TEST 3180.2 HSL Activity (%).
Turning to `Cc1csc(B(O)O)c1` [Example 88, 4-METHYLTHIOPHENE-2-BORONIC ACID], the activity at 10 µM was 49%.
Still for that read-out and setting: the figure for `Cc1ccc(B(O)O)o1` [Example 89, 5-METHYLFURAN-2-BORONIC ACID] is 87%; for `Cc1ccc(B(O)O)s1` [Example 90, 5-Methylthiophene-2-boronic acid] it is 48%.
On the same count and under the same terms, the figure for `OB(O)c1cc2ccccc2o1` [Example 91, BENZO[B]FURAN-2-BORONIC ACID] is 57%; for `OB(O)c1cc2ccccc2s1` [Example 92, Benzo[B]thiophene-2-boronic acid] it is 53%.
Same read-out and setting: the figure for `OB(O)c1ccco1` [Example 93, Furan-2-boronic acid] is 89%.
In the case of `OB(O)c1ccc(Cl)s1` [Example 94, 5-Chlorothiophene-2-boronic acid], the activity at 10 µM was found to be 17%.
Still for that read-out and setting: the figure for `N#Cc1ccc(B(O)O)s1` [Example 95, 5-Cyanothiophene-2-boronic acid] is 49%; for `CC(=O)c1ccc(B(O)O)s1` [Example 96, 5-Acetylthiophene-2-boronic acid] it is 68%; for `OB(O)c1cccs1` [Example 97, Thiophene-2-boronic acid] it is 66%.
Still for that read-out and setting: the figure for `OB(O)c1sccc1Br` [Example 98, 3-Bromothiophene-2-boronic acid] is 84%.

The experiment is the same for the next values; noted with them: read-out: TEST 3180.2 HSL Activity (%).
`Cc1cc(B2OCCCO2)sc1C=O` [Example 87, 2-(2-FORMYL-3-METHYLTHIEN-5-YL)-1,3,2-DIOXABORINANE]: the activity at 10 µM was 75%.
